We go through three compounds from patent publication US20130274276A1, “METHODS AND COMPOSITIONS FOR DETERMINING VIRUS SUSCEPTIBILITY TO NON-NUCLEOSIDE REVERSE TRANSCRIPTASE INHIBITORS” (Laboratory Corporation of America Holdings, priority 2012, published 2013).

Common to all, as to type: cell-based
The test system of test [1] is HIV strain derived from an infected patient having a Y188L mutation. Briefly: PhenoSenseGT report, susceptibility analysis of patient-derived HIV. To be noted: fold change in IC50 greater than the biological cutoff (BCO) for those drugs, FIG. 3. On the procedure:
FIG. 3 is a sample PhenoSenseGT® report showing the results of susceptibility analyses to various nucleoside reverse transcriptase inhibitors (NRTIs), non-nucleoside reverse transcriptase inhibitors (NNRTIs), and protease inhibitors (PIs).
Drug susceptibility tests performed with resistance test vectors were carried out using packaging host and target host cells consisting of the human embryonic kidney cell line 293. Susceptibility tests were carried out with the RTV libraries by using viral particles comprising the RTV libraries to infect a host cell in which the expression of the indicator gene is measured. The amount of indicator gene (luciferase) activity detected in infected cells is used as a direct measure of “infectivity,” i.e., the ability of the virus to complete a single round of replication. Thus, drug susceptibility can be determined by plotting the amount of luciferase activity produced by patient derived viruses in the presence of varying concentrations of the antiviral drug. By identifying the concentration of drug at which luciferase activity is half-maximum, the IC50 of the virus from which patient-derived segment(s) were obtained for the antiretroviral agent can be determined. The IC50 provides a direct measure of the susceptibility of the HIV infecting the patient to the drug. […]

Test [2] deals with HIV engineered to contain the Y188L reverse transcriptase mutation. As to the method:
Site-directed mutagenesis (SDM) was performed to verify the association of Y188L with RPV resistance. The impact of this mutation was also evaluated and compared to the existing RPV RAMs (K101E/P, E138A/G/K/Q/R, V179L, Y181C/I/V, H221Y, F227C, and M230I/L) by performing in-silico site directed mutagenesis (is SDM) as a method for analyzing samples in the database that have wild type amino acids at RPV resistance positions except for the single mutation of interest. Samples were not excluded based on other NNRTI RAMs, or their NRTI and PI profile. In the is SDM analysis, fold change (FC) distribution of samples with each mutation was compared to specimens without the mutation, and the difference was evaluated for statistical significance using Mann-Whitney test. […]
Drug susceptibility tests performed with resistance test vectors were carried out using packaging host and target host cells consisting of the human embryonic kidney cell line 293. Susceptibility tests were carried out with the RTV libraries by using viral particles comprising the RTV libraries to infect a host cell in which the expression of the indicator gene is measured. The amount of indicator gene (luciferase) activity detected in infected cells is used as a direct measure of “infectivity,” i.e., the ability of the virus to complete a single round of replication. […]

In test [3] the test system is HIV clinical specimens with Y188L and no known RPV resistance associated mutations. The test is described as follows: In-silico site directed mutagenesis (isSDM) analysis of matched phenotype/genotype database of clinical specimens. To be noted: 286 clinical specimens with Y188L and no known RPV resistance associated mutations; biological cutoff FC=2. On the procedure: Rilpivirine (RPV) is a recently approved non-nucleoside reverse transcriptase inhibitor (NNRTI). […] Correlation analysis was performed among clinical specimens with both phenotypic and genotypic data (N=20,004). A novel mutation associated with phenotypic reduced rilpivirine susceptibility was identified, Y188L, as determined by a fold change in IC50 (FC) greater than the biological cutoff (BCO) for rilpivirine (FC=2).
Site-directed mutagenesis (SDM) was performed to verify the association of Y188L with RPV resistance. The impact of this mutation was also evaluated and compared to the existing RPV RAMs (K101E/P, E138A/G/K/Q/R, V179L, Y181C/I/V, H221Y, F227C, and M230I/L) by performing in-silico site directed mutagenesis (is SDM) as a method for analyzing samples in the database that have wild type amino acids at RPV resistance positions except for the single mutation of interest. Samples were not excluded based on other NNRTI RAMs, or their NRTI and PI profile. In the is SDM analysis, fold change (FC) distribution of samples with each mutation was compared to specimens without the mutation, and the difference was evaluated for statistical significance using Mann-Whitney test.
Drug susceptibility tests performed with resistance test vectors were carried out using packaging host and target host cells consisting of the human embryonic kidney cell line 293. […]

On to `O=C1Nc2ccc(Cl)cc2[C@@](C#CC2CC2)(C(F)(F)F)O1` [efavirenz], for which the “susceptibility of HIV with Y188L mutation (fold change in IC50 relative to biological cutoff)” value in test [1] is “reduced susceptibility”.

For the compound `Cc1ccnc2c1NC(=O)c1cccnc1N2C1CC1` [nevirapine], in test [1], the “susceptibility of HIV with Y188L mutation (fold change in IC50 relative to biological cutoff)” value is given as “reduced susceptibility”. Take `Cc1cc(/C=C/C#N)cc(C)c1Nc1ccnc(Nc2ccc(C#N)cc2)n1` [rilpivirine]: in test [2], the “fold change in IC50 (FC) of the Y188L site directed mutant” value is 6.1 fold. In addition, the “median fold change in IC50 (FC) of clinical specimens with Y188L” value in test [3] turned out to be 9.2 fold.
